According to patent US9937194B1, “Compounds and methods for treating inflammatory diseases” (priority 2009, dated 2018):
Read-outs that look alike come from different tables or passages of the source.

Tests used:
[1] = test system: Akt; test: H2O2-induced phosphorylation of Akt in PMA-differentiated U937 cells (western blot); type: cell-based, human
Experimental: Cell Lysis and Western Blotting. Whole cell protein extracts are prepared using modified RIPA buffer (50 mM Tris HCL pH 7.4, 0.5% NP-40, 0.25% Na-deoxycholate, 150 mM NaCl with freshly added complete protease (Roche). Phosphatase inhibitor (Active Motif) is also added when required. Protein concentration is determined using the Bio-Rad Protein Assay (Bio-Rad). Proteins are separated by SDS-PAGE under denaturing conditions, and electrotransferred to a nitrocellulose membrane (Amersham Biosciences, Amersham, U.K.) (Western blotting). The membranes are blocked in TBS containing 0.05% Tween 20 and 5% non-fat dried milk, and then incubated with anti-pAkt or Akt antibody followed by an horse radish peroxidase-conjugated secondary antibody (Dako UK Ltd., Ely, UK). Bound antibodies are visualized by ECL Plus (GE Healthcare UK Ltd., Little Chalfont, UK). The band density is calculated by densitometry (UVP Bioimaging Systems, Cambridge, UK) using Labworks software (Ultra-Violet Products, Cambridge, UK).
Effects of compounds on H2O2-induced phosphorylation of Akt in PMA-differentiated U937 cells. PMA-differentiated macrophage-like cells are pretreated with compounds described herein for 20 min. After H2O2 (1 mM) stimulation for 30 min, cells are lysed. Phosphorylation levels of Akt are measured by western blot. Data are calculated relative to total protein, and expressed as fold changes against positive control treated with H2O2 only. Values represent means of three or four experiments±SEM.

[2] = test system: MMP9; test: PMA-induced MMP9 expression in U937 cells (gelatin zymography); type: cell-based, human; settings: for MMP9 inhibition (%): test concentration not given, bracketed second value not explained
Experimental: Zymography. MMP9 enzyme activity is measured by gelatin zymography. 5 μl of supernatants were diluted with 5 μl Laemli sample buffer (Bio-Rad) and are loaded on a Novex® 10% Zymogram (Gelatin) gel (Invitrogen). After electrophoresis (90 min, 125 V, 35 mA, 5 W) gels are incubated with 1× Novex® zymogram renaturing buffer (Invitrogen) for 30 min at room temperature with gentle agitation. Gels are then rinsed in 1× Novex® zymogram developing buffer (Invitrogen) for 30 min at room temperature with gentle agitation prior to overnight incubation in the developing buffer at 37° C. After incubation the gels are stained using the colloidal blue staining kit (Invitrogen) with buffer containing 20% methanol and 70% distilled water to visualize the zymogen bands. Relevant band intensities are quantified by densitometric analysis using the UVP GelDoc-It system.
Effects of compounds on PMA-induced MMP9 expression in U937 cells. U937 cells are pretreated with compounds described herein for 1 hr, followed by PMA (50 ng/ml) treatment for 48 hrs. After 48 hrs supernatants are collected for zymography. MMP9 enzyme activity is measured by gelatin zymography. Data are expressed as fold changes against positive control treated with PMA only. Values represent means of three experiments±SEM.

[3] = test system: U937 cells; test: H2O2-induced steroid insensitivity in U937 cells (dexamethasone IC50 on TNFα-induced IL-8); type: cell-based, human; settings: highest concentration tested (100 μM); H2O2 200 μM
Experimental: (§1) Cytokine ELISA. LPS-induced IL-8, TNFα concentrations and TNFα-induced IL-8 concentrations are determined by sandwich ELISA according to the manufacturer's instructions (R&D Systems Europe). IC50 values for dexamethasone on IL-8 production are calculated using the computer program Prism 4.0 (GraphPad Software Inc., San Diego, Calif.) as a marker for steroid sensitivity.
Restoration of steroid sensitivity. U937 cells: U937 are treated with oxidative stress (H2O2, 200 μM or 0.15 dilution CSM (cigarette smoke conditioned medium)) and 4 hours later, stimulated with TNFα (10 ng/ml) in the presence of dexamethasone (10^−11-10^−6M). Supernatant and cells are collected 24 hrs after stimulation and IL-8 is measured by conventional ELISA. As the index of corticosteroid sensitivity, IC50 of dexamethasone is calculated. Test compounds are treated 20 min before oxidative stress treatment.
Effects of compounds on H2O2-induced steroid insensitivity in U937 cells. Cells stimulated with H2O2 (200 μM) overnight are incubated with compounds described herein for 30 min under H2O2 (200 μM) exposure. The cells are treated with dexamethasone (10^−11 to 10^−6 M) for 20 min, followed by the TNFα stimulation overnight. TNFα-induced IL-8 release is evaluated by ELISA and IC50 values for dexamethasone on IL-8 production are calculated using Prism. Data are expressed as fold changes against positive control treated with H2O2 only. Values represent means of four experiments±SEM. H2O2 exposure reduces dexamethasone sensitivity by approximately 4 fold based on calculated IC50 values of TNFα-induced IL-8 production.

[4] = test system: HDAC activity; test: H2O2-induced reduction of HDAC activity in PMA-differentiated U937 cells; type: cell-based, human; settings: for HDAC activity reached compared with untreated controls: H2O2 200 μM, comparators at highest doses tested; for restoration of H2O2-reduced HDAC activity (%): test concentration not given, bracketed second value not explained
Experimental: In cell HDAC assay. Cells are incubated with Fluor de Lys™ substrate for 1 hr before lyses. Total HDAC activity from whole cell extracts is measured using the HDAC Fluorimetric Assay/Drug Discovery Kit (BIOMOL® International, Inc., Plymouth Meeting, Pa.).
HDAC expression: In cell HDAC activity assay: U937 is differentiated to macrophage type cells by PMA for 3 days. HDAC fluorescent substrate (Biomol) is added before exposure of oxidative stress (H2O2, 200 μM) or Tobacco smoke conditioned medium for 4 hrs. HDAC activity is measured (Biomol kit). Compounds at different concentrations are treated 20 min before oxidative stress treatment.
PMA-differentiated macrophage-like cells are pretreated with compounds described herein for 20 min. After H2O2 (200 μM) stimulation for 4 hrs, HDAC activity is assayed. Data are expressed as fold changes against positive control treated with H2O2 only. Values represent means of four experiments±SEM.

[5] = type: cell-based
Experimental: The human monocytic cell line U937 and the human type II alveolar epithelial carcinoma cell line A549 were obtained from the American Type Culture Collection (ATCC, Rockville, Md.). PBMCs from COPD patients were obtained in Brompton hospital and separated by AccuSPIN (Sigma-Aldrich, Poole, UK). Cells were cultured in complete growth medium (Sigma-Aldrich) (RPMI 1640 for U937, PBMCs, and Dulbecco's modified essential medium (DMEM) for A549) supplemented with 10% fetal bovine serum (FBS) and 1% L-glutamine at 37° C. in a humidified atmosphere with 5% CO2. U937 were differentiated into an adherent macrophage-like morphology by exposure to PMA (50 or 100 ng/ml) for 48 hrs in complete growth medium. Cell viability was assessed microscopically by trypan blue staining. Cell toxicity was determined by MTT assay as needed. This study was approved by the ethics committee of the Royal Brompton Hospitals, and all subjects gave written informed consent.

[6] = test system: IL-8; test: LPS-induced IL-8 release in PMA-differentiated U937 cells (ELISA); type: cell-based, human; settings: for IC50: LPS-induced IL-8 release, PMA-differentiated U937, NA = inactive; for IL-8 inhibition (%): test concentration not given
Experimental: as §1
(§2) Effects of compounds on LPS-induced IL-8 and TNFα release in PMA-differentiated U937 cells. PMA-differentiated macrophage-like cells are pretreated with compounds described herein for 1 hr, followed by LPS (100 ng/ml) stimulation for 4 hrs. LPS-induced IL-8 and TNFα release is evaluated by ELISA. Values represent means of three experiments±SEM.

[7] = test system: TNFα; test: LPS-induced TNFα release in PMA-differentiated U937 cells (ELISA); type: cell-based, human; settings: for IC50: LPS-induced TNFα release, PMA-differentiated U937, NA = inactive; for TNFα inhibition (%): test concentration not given
Experimental: as §1, §2

[8] = test system: H. influenzae LC002; test: MIC; type: cell-based
[9] = test system: S. aureus MRSA 33591; test: MIC; type: cell-based
[10] = test system: S. pneumoniae ATCC 49619; test: MIC; type: cell-based
[11] = test system: E. faecium ATCC 19434; test: MIC; type: cell-based
[12] = test system: H. influenzae ATCC 49247; test: MIC; type: cell-based
[13] = test system: S. aureus ATCC 29213 (MSSA) MLS-S; test: MIC; type: cell-based
[14] = test system: K. pneumonia 13883; test: MIC; type: cell-based; settings: in µg/mL
[15] = test system: HDAC2 mRNA; test: Cigarette smoke extract-induced reduction of HDAC2 mRNA in A549 cells; type: cell-based, human
Experimental: Preparations of cigarette smoke extract. To prepare the cigarette smoke extract, two full-strength Marlboro cigarettes (filters removed; Phillip Morris USA, Richmond, Va.) are combusted through a modified 60-ml syringe apparatus, and the smoke passed through 20 ml of DMEM medium. Each cigarette generally yields five draws of the syringe (to the 60-ml mark), with each individual draw taking approximately 10 s to complete. Cigarette smoke extract is then passed through a 0.20-μm filter to sterilize and remove particulate matter and is used immediately unless otherwise stated.
Quantitative RT-PCR. Total RNA extraction and reverse transcription are performed using an RNeasy kit (QIAGEN, Crawley, UK) and a High-Capacity cDNA Reverse Transcription Kits (Applied Biosystems, Foster City, Calif.). Gene transcript level of HDAC2 (HS00231032_M1, Applied Biosystems, California, USA) and the house-keeping gene, guanine nucleotide binding protein beta polypeptide-2-like 1 (GNB2L1) (HS00272002_M1, Applied Biosystems) are quantified by real-time PCR using a TaqMan® Gene Expression Master Mix (Applied Biosystems) on a Rotor-Gene 6000 (Corbett Research, Cambridge, UK). Transcripts are analysed by the delta (D) CT method and variations in cDNA concentrations between different samples were corrected using GNB2L1.
Effects of macrolides on cigarette smoke extract-induced (CSE-induced) reduction of HDAC2 mRNA in A549 cells. Cells pretreated with compounds described herein for 30 min are exposed to CSE (0.15 O.D.) for 1 hr. The cells are washed twice and incubated with medium only for 4 hrs. Data are expressed as % reduction from baseline (left) or % increase from baseline under H2O2. Values represent means of three experiments±SEM. Example 33 reverses cigarette smoke extract-induced (CSE-induced) reduction of HDAC2 mRNA expression in A549 cells at concentrations of about 10 μM or greater, and with statistical significance of p<0.05 versus treatment with CSE only (one-way ANOVA with post hoc test, n=3) at doses of about 30 μM or greater.

## CC[C@H]1OC(=O)[C@H](C)[C@@H](O[C@H]2C[C@@](C)(OC)[C@@H](O)[C@H](C)O2)[C@H](C)[C@@H](O[C@@H]2O[C@H](C)C[C@H](N(C)C)[C@H]2O)[C@](C)(OC)C[C@@H](C)C(=O)[C@H](C)[C@@H](O)[C@]1(C)O [CLR, clarithromycin, reference compound]
[1]; PMA-differentiated U937, H2O2 1 mM 30 min
  inhibition of Akt phosphorylation compared with Example 33: only at much higher concentrations than Example 33
[2]
  MMP9 inhibition (%): 8 (22) %
[3]
  restoration of dexamethasone sensitivity: None of ERY, CLR, or AZI restored dexamethasone sensitivity
[4]; PMA-differentiated U937, H2O2 200 μM 4 hrs
  restoration of HDAC activity compared with Example 33: only at much higher doses than Example 33
[4]; PMA-differentiated U937
  HDAC activity reached compared with untreated controls: only restore HDAC activity to levels comparable to untreated controls
[4]
  restoration of H2O2-reduced HDAC activity (%): 14%
[5]; human
  Cell Toxicity (% cell death): −7%
[6]; Homo sapiens, U-937
  IC50: 507 ± 44 µM
[6]; LPS 100 ng/ml 4 hrs
  inhibition of LPS-induced IL-8 release compared with Example 33: at higher concentrations than Example 33
[6]
  IL-8 inhibition (%): 17%
[7]; Homo sapiens, U-937
  IC50: 426 ± 64 µM
[7]; LPS 100 ng/ml 4 hrs
  inhibition of LPS-induced TNFα release compared with Example 33: at higher concentrations than Example 33
[7]
  TNFα inhibition (%): 21%

## CC[C@H]1OC(=O)[C@H](C)C(=O)[C@H](C)[C@@H](O[C@H]2C[C@@H](N(C)C)[C@H](O)[C@@H](C)O2)[C@@](C)(OC)C[C@@H](C)C(=O)[C@H](C)[C@H]2N(CCCCn3cc(-c4ccccn4)nn3)C(=O)O[C@]12C [Example 21]
[2]
  MMP9 inhibition (%): 49 (41) %
[8]
  MIC H. influenzae LC002: > 64 mg/L
[9]
  MIC S. aureus MRSA 33591: > 64 mg/L
[10]
  MIC S. pneumoniae ATCC 49619: > 64 mg/L
[11]
  MIC E. faecium ATCC 19434: > 64 mg/L
[12]
  MIC H. influenzae ATCC 49247: > 64 mg/L
[4]
  restoration of H2O2-reduced HDAC activity (%): 36%
[13]
  MIC S. aureus ATCC 29213 (MSSA) MLS-S: > 64 mg/L
[5]; test concentration not given
  Cell Toxicity (% cell death): 3%
[6]
  IL-8 inhibition (%): 59%
[14]
  MIC K. pneumonia 13883: >64
[7]
  TNFα inhibition (%): 14%

## CCC1OC(=O)C(C)C(OC2CC(C)(OC)C(O)C(C)O2)C(C)C(OC2OC(C)CC(N(C)C)C2O)C(C)(O)CC(C)CN(C(C)=O)C(C)C2OC(=O)OC12C (centres unmarked) [Example 33]
[1]; p<0.05 versus H2O2 only, n=3 or 4
  concentration at which inhibition of Akt phosphorylation is statistically significant: ≥ 100 µM
[15]; A549, pretreated 30 min, CSE 0.15 O.D. 1 hr
  concentration at which CSE-induced reduction of HDAC2 mRNA expression is reversed: ≥ 10 µM
[15]; p<0.05 versus CSE only, n=3
  concentration at which reversal of HDAC2 mRNA reduction is statistically significant: ≥ 30 µM
[2]; PMA-induced MMP9 expression, U937, NA = inactive
  IC50: 56 ± 19 µM
[2]; U937, pretreated 1 hr, PMA 50 ng/ml 48 hrs
  concentration at which PMA-induced MMP9 up-regulation is inhibited: ≥ 33 µM
[2]; p<0.05 versus PMA only, n=3
  concentration at which inhibition of MMP9 up-regulation is statistically significant: ≥ 100 µM
[4]; PMA-differentiated U937
  HDAC activity reached compared with untreated controls: higher than untreated controls
[4]; PMA-differentiated U937, pretreated 20 min, H2O2 200 μM 4 hrs
  concentration at which the H2O2-induced reduction in HDAC activity is restored: ≥ 10 µM
[4]; p<0.01 versus H2O2 only, n=4
  concentration at which restoration of HDAC activity is statistically significant: ≥ 30 µM
[6]
  IC50: 95 ± 14 µM
[6]; pretreated 1 hr, LPS 100 ng/ml 4 hrs, p<0.05, n=3
  concentration at which LPS-induced IL-8 release is inhibited: ≥ 100 µM
[7]
  IC50: 97 ± 5 µM
[7]; pretreated 1 hr, LPS 100 ng/ml 4 hrs, p<0.01, n=3
  concentration at which LPS-induced TNFα release is inhibited: ≥ 100 µM
